According to US4839465A, “Di-(D-tryptophyl and/or tetrahydropyridoindolylcarbonyl)-containing peptide amides and process for preparation thereof” (Sterling Drug Inc., priority 1987, dated 1989):
Like-named read-outs stand apart in the source and are kept apart here. Where a SMILES comes first, the peptide text is derived from it. [ ]: non-standard residue; d: D form. Tpi = O=C(O)[C@@H]1Cc2c([nH]c3ccccc23)CN1; dTpi = O=C(O)[C@H]1Cc2c([nH]c3ccccc23)CN1

Tests used:
[1] = system: Substance P effect in isolated guinea pig ileum longitudinal muscle; assay: Guinea pig ileum test, Substance P agonist and antagonist effect; format: cell-based
Experimental: Strips of longitudinal muscle (derived from terminal ileum of adult male guinea pigs (Charles River, 400-600 g.) are mounted in 5-ml. organ baths containing oxygenated Krebs solution containing 1 μM each of atropine and pyrilamine maintained at 30°-33° C. and connected to isometric transducers. Following tissue equilibration and repeated washing (45-60 min.), SP or an appropriate reference agonist is added cumulatively to the bath and contractions of the tissue are recorded. The bath is washed thoroughly and 30-45 min. is allowed to elapse before construction of a second reference agonist curve to assure reproducibility of the responses. Test compounds are similarly evaluated for agonist activity up to a maximum concentration of 10-100 μM. Regression analysis of the linear portion of the log concentration-percent maximal response curves provides the EC50 (and 95% confidence limits), the standard measure of agonist potency. When appropriate, relative molar potency ratios are calculated (EC50 reference/ED50 test drug). Antagonist activity is examined by pretreating thoroughly washed tissues with test compound (using a standard 5-10 min. contact time), then constructing a cumulative dose-response curve to the reference agonist. The effects of several concentrations of test antagonist, pooled across separate experiments, provide dose-ratio (EC50 shift) data for a standard Schild plot analysis, with computation of the pA2.

[2] = target: T1, SP receptor (rat brain tissue) (Rattus norvegicus, UniProt P14600); assay: Rat brain tissue 3H-SP competitive binding; conditions: for Kd: crude rat brain tissue, 3H-SP, read-out: Substance P Competitive Binding KD; for effect on 3H-SP binding: specificity and sensitivity of the binding assay, rat brain tissue
T1 construct: from tissue; host or cells: crude rat brain tissue
T1 sequence (P14600 whole entry): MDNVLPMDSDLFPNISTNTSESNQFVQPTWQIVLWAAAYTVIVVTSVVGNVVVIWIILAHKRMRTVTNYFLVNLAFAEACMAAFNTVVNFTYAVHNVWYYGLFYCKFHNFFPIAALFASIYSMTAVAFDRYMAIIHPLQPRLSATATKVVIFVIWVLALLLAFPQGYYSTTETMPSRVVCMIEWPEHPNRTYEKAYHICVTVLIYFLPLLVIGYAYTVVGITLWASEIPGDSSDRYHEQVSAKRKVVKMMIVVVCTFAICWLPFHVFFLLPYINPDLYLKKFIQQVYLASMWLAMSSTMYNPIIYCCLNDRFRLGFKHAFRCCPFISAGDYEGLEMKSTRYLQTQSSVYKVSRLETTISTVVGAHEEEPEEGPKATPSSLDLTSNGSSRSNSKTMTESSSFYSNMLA
Experimental: Crude rat brain tissue is suspended in buffer containing protease inhibitors and calcium ions and magnesium ions and incubated under nitrogen atmosphere with ^3 H-SP and test compound. The bound SP is then separated from free SP by filtration and quantitated by liquid scintillation spectroscopy. This test meets the criteria of reversibility,saturability, sensitivity to known SP agonists and antagonists, and specificity for an SP receptor binding assay.
With regard to reversibility, addition of unlabelled SP causes a gradual decrease in bound ^3 H-SP, showing that SP is not irreversibly bound to the receptors in the tissue. With regard to saturability, the amount of bound ^3 H-SP in the preparation increases in direct proportion to the concentration of ^3 H-SP added until a saturation point is reached. […] With regard to sensitivity, known SP agonists and antagonists inhibit ^3 H-SP binding.
The results are expressed in terms of the equilibrium constant KD in nanomoles per liter (nM), which takes into account the concentration of ^3 H-SP.

[3] = system: acetylcholine-induced writhing; assay: Mouse acetylcholine-induced writhing test; format: in vivo; conditions: intrathecal, acetylcholine 3.2 mg./kg. i.p. five minutes after injection
Experimental: Male Swiss-Webster mice (18-24 g.) are divided into groups of 8-15 mice. A test compound in a vehicle or the vehicle alone is administered intrathecally in a volume of 5 μl by the method of Hylden and Wilcox (European Journal of Pharmacology, vol. 67, pp. 313-316, 1980) except that caudal cutaneous incision is not performed prior to injection. Five minutes after the injection a solution of acetylcholine (3.2 mg./kg., the approximate ED90) in 0.9% aqueous sodium chloride is administered intraperitoneally to each mouse. […] For test compounds which produce a graded dose-response ED50 values with 95% confidence limits are determined by probit analysis of the data.

gastric juice secretion = conditions: in vivo; cited from earlier work
[4] = Schild plot, 5-10 min. contact time, guinea pig ileum longitudinal muscle

CSCC[C@H](NC(=O)[C@H](CC(C)C)NC(=O)[C@@H](Cc1c[nH]c2ccccc12)NC(=O)[C@H](Cc1ccccc1)NC(=O)[C@H](N)Cc1c[nH]c2ccccc12)C(N)=O [Example 1, H--trp--Phe--trp--Leu--Met--NH2] (H-[dW]F[dW]LM-NH2)
EC50 [1]: > 1000 nM
Substance P agonist activity ([1]; guinea pig ileum, not quantified): Some agonist activity was noted

CC(C)C[C@H](NC(=O)[C@@H](Cc1c[nH]c2ccccc12)NC(=O)[C@H](Cc1ccccc1)NC(=O)[C@@H](Cc1c[nH]c2ccccc12)NC(=O)[C@@H]1CCCN1)C(=O)N[C@@H](Cc1ccccc1)C(N)=O [Example 2, H--Pro--trp--Phe--trp--Leu--Phe--NH2] (H-P[dW]F[dW]LF-NH2)
Substance P Antagonist pA2 [1, 4]: 6.4
Kd [2]: 22 nM

CC(C)C[C@H](NC(=O)[C@@H](Cc1c[nH]c2ccccc12)NC(=O)[C@H](Cc1ccccc1)NC(=O)[C@@H](Cc1c[nH]c2ccccc12)NC(=O)[C@@H]1CCCN1)C(N)=O [Example 3, H--Pro--trp--Phe--trp--Leu--NH2] (H-P[dW]F[dW]L-NH2)
Substance P Antagonist pA2 [1, 4]: 5.1
Kd [2]: 35 nM

CSCC[C@H](NC(=O)[C@H](CC(C)C)NC(=O)[C@@H](Cc1c[nH]c2ccccc12)NC(=O)[C@H](Cc1ccccc1)NC(=O)[C@H]1Cc2c([nH]c3ccccc23)CN1)C(N)=O [Example 4, H--tpi--Phe--trp--Leu--Met--NH2] (H-[dTpi]F[dW]LM-NH2)
Substance P Antagonist pA2 [1, 4]: 6.4
ED50, protection against acetylcholine-induced writhing [3]: 0.7 μg/mouse
Kd [2]: 42 nM

CSCC[C@H](NC(=O)[C@H](CC(C)C)NC(=O)[C@@H](Cc1c[nH]c2ccccc12)NC(=O)[C@H](Cc1ccccc1)NC(=O)[C@@H]1Cc2c([nH]c3ccccc23)CN1)C(N)=O [Example 5, H--Tpi--Phe--trp--Leu--Met--NH2] (H-[Tpi]F[dW]LM-NH2)
Kd [2]: 59 nM

CC(C)C[C@H](NC(=O)[C@H]1Cc2c([nH]c3ccccc23)CN1C(=O)[C@H](Cc1ccccc1)NC(=O)[C@@H](Cc1c[nH]c2ccccc12)NC(=O)[C@@H]1CCCN1)C(=O)N[C@@H](Cc1ccccc1)C(N)=O [Example 6, H--Pro--trp--Phe--tpi--Leu--Phe--NH2] (H-P[dW]F[dTpi]LF-NH2)
Substance P Antagonist pA2 [1, 4]: 6.4
Kd [2]: 39 nM

CC(C)C[C@H](NC(=O)[C@@H](Cc1c[nH]c2ccccc12)NC(=O)[C@H](Cc1ccccc1)NC(=O)[C@H](N)Cc1c[nH]c2ccccc12)C(=O)N[C@@H](Cc1ccccc1)C(N)=O [Example 8, H--trp--Phe--trp--Leu--Phe--NH2] (H-[dW]F[dW]LF-NH2)
Substance P Antagonist pA2 [1]: 6.28

CC(C)C[C@H](NC(=O)[C@@H](Cc1c[nH]c2ccccc12)NC(=O)[C@H](Cc1ccccc1)NC(=O)[C@H]1Cc2c([nH]c3ccccc23)CN1)C(=O)N[C@@H](Cc1ccccc1)C(N)=O [Example 9, H--tpi--Phe--trp--Leu--Phe--NH2] (H-[dTpi]F[dW]LF-NH2)
Substance P Antagonist pA2 [1]: 6.65

NCC(CC(=O)O)c1ccc(Cl)cc1 (stereo not drawn) [baclofen, reference compound]
effect on 3H-SP binding [2]: do not affect

COc1cc(CNC(=O)CCCC/C=C/C(C)C)ccc1O [capsaicin, reference compound]
effect on 3H-SP binding [2]: do not affect

H--Tpi--Bpa--trp--Leu--Phe--NH2 H--Tpi--bpa--trp--Leu--Phe--NH2 (mixture of isomers) [Example 7, H--Tpi--Bpa--trp--Leu--Phe--NH2 H--Tpi--bpa--trp--Leu--Phe--NH2 (mixture of isomers)]
Substance P Antagonist pA2 [1, 4]: 6.25

Z--Tca--Met--Asp--Phe--NH2 [Tca-tetragastrin]
gastric juice stimulating activity (gastric juice secretion): having gastric juice stimulating activity
